Consider nine compounds from patent US9598433B2, “Hepatitis C virus inhibitors” (BRISTOL-MYERS SQUIBB COMPANY, priority 2012, dated 2017).

The subject of experiment [1] is HCV genotype 1a (H77 strain) replicon in HUH-7 cells. Briefly: HCV replicon luciferase reporter assay, genotype 1a. The format is cell-based. The conditions noted are these: Hepatitis C virus, 72 h, genotype 1a replicon, 3 days incubation. The source says: (§1) An HCV replicon whole cell system was established as described by Lohmann V, Korner F, Koch J, Herian U, Theilmann L, Bartenschlager R., Science 285(5424):110-3 (1999) and modified to introduce a luciferase reporter, as first described by Krieger et al (Krieger N, Lohmann V, and Bartenschlager R, J. Virol. 75(10):4614-4624 (2001)). CDNA encoding a humanized form of the Renilla luciferase gene and a linker sequence fused directly to the 3′-end of the luciferase gene were introduced into the replicon construct using an Ascl restriction site located in core, directly upstream of the neomycin marker gene. The adaptive mutation at position 1179 (serine to isoleucine) was also introduced (Blight K J, Kolykhalov, A A, Rice, C M, Science 290(5498):1972-1974). A stable cell line constitutively expressing this HCV replicon construct was generated by first linearizing plasmid DNAs with ScaI. RNA transcripts were synthesized in vitro using the T7 MegaScript transcription kit (Ambion, Austin, Tex.) according to manufacturer's directions. In vitro transcripts of the cDNA were transfected into the human hepatoma cell line, HUH-7. […] Resulting cell lines were characterized for positive and negative strand RNA production and protein production over time.
A stable HCV replicon luciferase reporter cell line representing the genotype 1a H77 strain (Yanagi M, Purcell R H, Emerson S U, et al. Transcripts from a single full-length cDNA clone of hepatitis C virus are infectious when directly transfected into the liver of a chimpanzee. Proc Natl Acad Sci USA 1997; 94(16):8738-8743) was generated as described previously for the genotype 1b(Con1) replicon luciferase cell line. The replicon construct was modified by introducing mutations were introduced into the genes encoding the NS3 helicase domain (proline replaced by leucine at position 1496) and NS5A (serine to isoleucine at position 2204) to improve replication in cell culture.
(§2) HCV replicon luciferase assays were developed to monitor the inhibitory effects of compounds described in the disclosure on HCV genotypes 1a and 1b viral replication. HUH-7 cells, constitutively expressing the HCV replicon, were grown in Dulbecco's Modified Eagle Media (DMEM) (Gibco-BRL) containing 10% Fetal calf serum (FCS) (Sigma) and 1 mg/mL G418 (Gibco-BRL). Compounds were serially diluted 3 folds in DMSO for a twenty-point titration and subsequently transferred to sterile 384-well tissue-culture treated plates (Corning cat #3571). The plates were then seeded with 50 μL of cells at a density of 3.0×10^3 cells/well in DMEM containing 4% FCS (final DMSO concentration at 0.5%). After 3 days incubation at 37° C., cells were analyzed for Renilla Luciferase activity using the EnduRen as substrate (Promega cat #E6485). The EnduRen substrate was diluted in DMEM and then added to the plates to a final concentration of 7.5 μM. The plates were incubated for 2 hrs at 37° C. and then read immediately for 30 seconds with Viewlux Imager (PerkinElmer) using a luminescence program. To assess cytotoxicity of compounds, CC50 values were generated by multiplexing the EnduRen-containing plates with Cell Titer-Blue (Promega, cat # G8082). Cell-Titer Blue (3 μL) was added to each well and incubated for 8 hrs at 37° C. The fluorescence signal from each well was read, with an excitation wavelength at 525/10 nm and an emission wavelength of 598/10 nm, using the Viewlux Imager.
(§3) The EC50 values for compounds were calculated by using a four-parameter logistic equation: y=A+((B−A)/(1+((C/x)^D))), where A and B denotes minimal and maximal % inhibition, respectively, C is the EC50, D is the hill slope and x represents compound concentration.
In general terms: In antiviral work, replicon cells carry a viral genome segment that copies itself.

Experiment [2] relates to HCV genotype 1b (Con1) replicon in HUH-7 cells. Briefly: HCV replicon luciferase reporter assay, genotype 1b. The format is cell-based. The settings on record: Hepatitis C virus, 72 h, genotype 1b replicon, 3 days incubation.
Description: as §1, §2, §3

Where two headings read alike, the source gives them in different places.

As a reminder, the EC50 is the concentration giving half of the maximal effect. As to `COc1cc2ccnc(O[C@@H]3C[C@H]4C(=O)N[C@]5(C(=O)NS(=O)(=O)C6(C)CC6)C[C@H]5/C=C\CC[C@@H](C)O[C@@H](C)[C@H](NC(=O)OC(C)(C)C(F)(F)F)C(=O)N4C3)c2cc1F` [Compound 2005, 1,1,1-trifluoro-2-methylpropan-2-yl ((2R,6S,7S,9R,13aS,14aR,16aS,Z)-2-((7-fluoro-6-methoxyisoquinolin-1-yl)oxy)-7,9-dimethyl-14a-(((1-methylcyclopropyl)sulfonyl)carbamoyl)-5,16-dioxo-2,3,5,6,7,9,10,11,13a,14,14a,15,16,16a-tetradecahydro-1H-cyclopropa[i]pyrrolo[1,2-e][1,5,8]oxadiazacyclopentadecin-6-yl)carbamate], the EC50 lay in the range of 1.01 to 5 nM in experiment [1] (read-out: LE_1a (EC50, range)) and 0.1 to 0.5 nM in experiment [2] (read-out: LE_1b (EC50, range)).

Turning to `COc1cc2ccnc(O[C@@H]3C[C@H]4C(=O)N[C@]5(C(=O)NS(=O)(=O)C6(C)CC6)C[C@H]5/C=C\CC[C@@H](C)O[C@@H](C)[C@H](NC(=O)OC(C)(C)C(C)(F)F)C(=O)N4C3)c2cc1F` [Compound 2006, 3,3-difluoro-2-methylbutan-2-yl ((2R,6S,7S,9R,13aS,14aR,16aS,Z)-2-((7-fluoro-6-methoxyisoquinolin-1-yl)oxy)-7,9-dimethyl-14a-(((1-methylcyclopropyl)sulfonyl)carbamoyl)-5,16-dioxo-2,3,5,6,7,9,10,11,13a,14,14a,15,16,16a-tetradecahydro-1H-cyclopropa[i]pyrrolo[1,2-e][1,5,8]oxadiazacyclopentadecin-6-yl)carbamate], the EC50 in experiment [1] (read-out: LE_1a (EC50, range)) was in the range of 1.01 to 5 nM; in experiment [2] (read-out: LE_1b (EC50, range)) it was 0.1 to 0.5 nM.

For `COc1cnc(O[C@@H]2C[C@H]3C(=O)N[C@]4(C(=O)NS(=O)(=O)C5(C)CC5)C[C@H]4/C=C\CC[C@@H](C)O[C@@H](C)[C@H](NC(=O)OC(C)(C)C(F)(F)F)C(=O)N3C2)c2cc(F)ccc12` [Compound 2007, 1,1,1-trifluoro-2-methylpropan-2-yl ((2R,6S,7S,9R,13aS,14aR,16aS,Z)-2-((7-fluoro-4-methoxyisoquinolin-1-yl)oxy)-7,9-dimethyl-14a-(((1-methylcyclopropyl)sulfonyl)carbamoyl)-5,16-dioxo-2,3,5,6,7,9,10,11,13a,14,14a,15,16,16a-tetradecahydro-1H-cyclopropa[i]pyrrolo[1,2-e][1,5,8]oxadiazacyclopentadecin-6-yl)carbamate], the EC50 is 0.63 nM in experiment [1] (read-out: LE_1a (EC50)); 0.51 to 1 nM in experiment [1] (read-out: LE_1a (EC50, range)); 0.24 nM in experiment [2] (read-out: LE_1b (EC50)); 0.1 to 0.5 nM in experiment [2] (read-out: LE_1b (EC50, range)).

For the compound `COc1cnc(O[C@@H]2C[C@H]3C(=O)N[C@]4(C(=O)NS(=O)(=O)C5(C)CC5)C[C@H]4/C=C\CC[C@@H](C)O[C@@H](C)[C@H](NC(=O)OC(C)(C)C(C)(F)F)C(=O)N3C2)c2cc(F)ccc12` [Compound 2008, 3,3-difluoro-2-methylbutan-2-yl ((2R,6S,7S,9R,13aS,14aR,16aS,Z)-2-((7-fluoro-4-methoxyisoquinolin-1-yl)oxy)-7,9-dimethyl-14a-(((1-methylcyclopropyl)sulfonyl)carbamoyl)-5,16-dioxo-2,3,5,6,7,9,10,11,13a,14,14a,15,16,16a-tetradecahydro-1H-cyclopropa[i]pyrrolo[1,2-e][1,5,8]oxadiazacyclopentadecin-6-yl)carbamate], the EC50 in experiment [1] (read-out: LE_1a (EC50, range)) lay within 0.51 to 1 nM; in experiment [2] (read-out: LE_1b (EC50, range)) it was 0.1 to 0.5 nM.

For the compound `C[C@@H]1CC/C=C\[C@@H]2C[C@@]2(C(=O)NS(=O)(=O)C2(C)CC2)NC(=O)[C@@H]2C[C@@H](Oc3nccc4c5c(ccc34)OCCO5)CN2C(=O)[C@@H](NC(=O)OC(C)(C)C(F)(F)F)[C@H](C)O1` [Compound 2009, 1,1,1-trifluoro-2-methylpropan-2-yl ((2R,6S,7S,9R,13aS,14aR,16aS,Z)-2-((2,3-dihydro-[1,4]dioxino[2,3-f]isoquinolin-7-yl)oxy)-7,9-dimethyl-14a-(((1-methylcyclopropyl)sulfonyl)carbamoyl)-5,16-dioxo-2,3,5,6,7,9,10,11,13a,14,14a,15,16,16a-tetradecahydro-1H-cyclopropa[i]pyrrolo[1,2-e][1,5,8]oxadiazacyclopentadecin-6-yl)carbamate], the EC50 in experiment [1] (read-out: LE_1a (EC50, range)) was in the range of 1.01 to 5 nM; in experiment [2] (read-out: LE_1b (EC50, range)), 0.51 to 1 nM.

As for `C[C@@H]1CC/C=C\[C@@H]2C[C@@]2(C(=O)NS(=O)(=O)C2(C)CC2)NC(=O)[C@@H]2C[C@@H](Oc3nccc4c5c(ccc34)OCCO5)CN2C(=O)[C@@H](NC(=O)OC(C)(C)C(C)(F)F)[C@H](C)O1` [Compound 2010, 3,3-difluoro-2-methylbutan-2-yl ((2R,6S,7S,9R,13aS,14aR,16aS,Z)-2-((2,3-dihydro[1,4]dioxino[2,3-f]isoquinolin-7-yl)oxy)-7,9-dimethyl-14a-(((1-methylcyclopropyl)sulfonyl)carbamoyl)-5,16-dioxo-2,3,5,6,7,9,10,11,13a,14,14a,15,16,16a-tetradecahydro-1H-cyclopropa[i]pyrrolo[1,2-e][1,5,8]oxadiazacyclopentadecin-6-yl)carbamate], the EC50 in experiment [1] (read-out: LE_1a (EC50, range)) lay within 1.01 to 5 nM; in experiment [2] (read-out: LE_1b (EC50, range)), 0.51 to 1 nM.

On to `COc1ccc2c(O[C@@H]3C[C@H]4C(=O)N[C@]5(C(=O)NS(=O)(=O)C6(C)CC6)C[C@H]5/C=C\CC[C@@H](C)O[C@@H](C)[C@H](NC(=O)OC(C)(C)C(F)(F)F)C(=O)N4C3)nc(-c3ccc(OC(C)C)cn3)cc2c1` [Compound 2011, 1,1,1-trifluoro-2-methylpropan-2-yl ((2R,6S,7S,9R,13a5,14aR,16aS,Z)-2-((3-(5-isopropoxypyridin-2-yl)-6-methoxyisoquinolin-1-yl)oxy)-7,9-dimethyl-14a-(((1-methylcyclopropyl)sulfonyl)carbamoyl)-5,16-dioxo-2,3,5,6,7,9,10,11,13a,14,14a,15,16,16a-tetradecahydro-1H-cyclopropa[i]pyrrolo[1,2-e][1,5,8]oxadiazacyclopentadecin-6-yl)carbamate], for which the EC50 lay in the range of 0.51 to 1 nM in experiment [1] (read-out: LE_1a (EC50, range)) and 0.1 to 0.5 nM in experiment [2] (read-out: LE_1b (EC50, range)).

On to `COc1ccc2c(O[C@@H]3C[C@H]4C(=O)N[C@]5(C(=O)NS(=O)(=O)C6(C)CC6)C[C@H]5/C=C\CC[C@@H](C)O[C@@H](C)[C@H](NC(=O)OC(C)(C)C(C)(F)F)C(=O)N4C3)nc(-c3ccc(OC(C)C)cn3)cc2c1` [Compound 2012, 3,3-difluoro-2-methylbutan-2-yl ((2R,6S,7S,9R,13a5,14aR,16aS,Z)-2-((3-(5-isopropoxypyridin-2-yl)-6-methoxyisoquinolin-1-yl)oxy)-7,9-dimethyl-14a-(((1-methylcyclopropyl)sulfonyl)carbamoyl)-5,16-dioxo-2,3,5,6,7,9,10,11,13a,14,14a,15,16,16a-tetradecahydro-1H-cyclopropa[i]pyrrolo[1,2-e][1,5,8]oxadiazacyclopentadecin-6-yl)carbamate], for which the EC50 in experiment [1] (read-out: LE_1a (EC50, range)) lay within 0.1 to 0.5 nM; in experiment [2] (read-out: LE_1b (EC50, range)) it was 0.1 to 0.5 nM.

As for `COc1ccc2c(O[C@@H]3C[C@H]4C(=O)N[C@]5(C(=O)NS(=O)(=O)C6(CF)CC6)C[C@H]5/C=C\CC[C@@H](C)O[C@@H](C)[C@H](NC(=O)OC(C)(C)C(F)(F)F)C(=O)N4C3)nccc2c1` [Compound 2013, 1,1,1-trifluoro-2-methylpropan-2-yl ((2R,6S,7S,9R,13a5,14aR,16aS,Z)-14a-(((1-(fluoromethyl)cyclopropyl)sulfonyl)carbamoyl)-2-((6-methoxyisoquinolin-1-yl)oxy)-7,9-dimethyl-5,16-dioxo-2,3,5,6,7,9,10,11,13a,14,14a,15,16,16a-tetradecahydro-1H-cyclopropa[i]pyrrolo[1,2-e][1,5,8]oxadiazacyclopentadecin-6-yl)carbamate], the EC50 lay in the range of 1.01 to 5 nM in experiment [1] (read-out: LE_1a (EC50, range)) and 0.51 to 1 nM in experiment [2] (read-out: LE_1b (EC50, range)).
